Measurements: patent US6774121B1, “Phospholipid prodrugs of anti-proliferative drugs” (D-Pharm, Ltd., priority 1999, dated 2004)
Values joined by “and” are separate entries in the source; they are usually repeats but may differ in a detail not shown here. Equal entries are not always repeated.

How the values were obtained:
[1] = system: human leukemia cell line CCRF-CEM (CEM); test: MTT cell growth inhibition, CEM cells (Example 4); type: cell-based; settings: Homo sapiens, CCRF-CEM; 72 hours, MTT assay; read-out: EC50, nMol CEM
Description: A series of methotrexate derivatives were screened for their inhibitory effect on cell growth. Three tumor cell lines were used for this screen: i) human leukemia cell line CCRF-CEM which is MTX-sensitive (herein denoted as CEM), ii) a mutant of CEM cell line which is MTX-resistant due to a mutation in the RFC (herein denoted as CEM-MTX; provided by Dr. […], Technion, Israel), and iii) rat C6 glioma cell line. Cells were seeded at a density of 10^4 cells/ml in RPMI medium supplemented with 10% FCS in 96 well plates. The cultured cells were incubated, during their linear growth phase, in the presence and absence of various concentrations of MTX derivatives. The tested compounds were prepared as 1 mM stock in absolute ethanol or DMSO and were diluted into the medium. The highest vehicle presence in the assay was 5% of the vehicle. After 72 hours at 37° C. the cytotoxic effect on the cells was estimated by using the colorimetric MTT assay (Mosmann (1983) J. Immunol Methods 65: 55-63) that measures mitochondrial reductase activity and serves for quantitative assessment of cellular viability. […] The EC50 values were calculated from dose response curves for each tested compound.

[2] = system: L1210; test: MTT cytotoxicity on tumor cell lines, L1210 (Example 8); type: cell-based; settings: L1210, lymphocytic leukemia (mouse), 72 hours
Description: (§1) Cell viability was analyzed after 72 hours incubation (37° C., 5% CO2) using the colorimetric MTT assay (Mosmann (1983) J. Immunol Methods 65: 55-63).

[3] = system: J774; test: MTT cytotoxicity on tumor cell lines, J774 (Example 8); type: cell-based; settings: J774, Myeloma (mouse), 72 hours
Description: as §1

[4] = system: T47D; test: MTT cytotoxicity on tumor cell lines, T47D (Example 8); type: cell-based; settings: Mammary cancer (human), 72 hours
Description: as §1

[5] = system: L1210 cells; test: Survival of pre-treated mice after L1210 tumor cell implantation; type: in vivo, mouse; settings: pre-treatment 3 mg/Kg or equivalent i.p. every other day for 21 days
Description: Protection against tumor growth was examined in mice pretreated with MTX or DP-MTX-71.
At the end of this regimen, the mice were injected with 1×10^6 L1210 cells into the peritoneum. The animals were then monitored for viability for 12 days subsequent to the injection of the tumor cells.

[6] = system: L1210; test: MTT cytotoxicity, parent L1210 cells (Example 9); type: cell-based; settings: Mus musculus

## CN(Cc1cnc2nc(N)nc(N)c2n1)c1ccc(C(=O)N[C@@H](CCC(=O)O)C(=O)O)cc1 [MTX, Methotrexate]
[1]
  EC50: 21 nM
[2]
  EC50: 13 nM
[3]
  EC50: 112 nM
[4]
  EC50: 50000 nM
[5]; 9 days after tumor implantation
  Surviving mice: 6/6
[5]; 10 days after tumor implantation
  Surviving mice: 4/6
[5]; 11 days after tumor implantation
  Surviving mice: 3/6
[5]; 12 days after tumor implantation
  Surviving mice: 2 and 2/6
[6]
  EC50: 14 nM
